{
  "source": "patent US20250333404A1",
  "about": "“DEUTERATED COMPOUNDS” (Neurocrine Biosciences, Inc., priority 2022, published 2025)",
  "molecular_target": "NaV1.6 (Homo sapiens (Human), UniProt Q9UQD0)",
  "sequence (Q9UQD0 whole entry)": "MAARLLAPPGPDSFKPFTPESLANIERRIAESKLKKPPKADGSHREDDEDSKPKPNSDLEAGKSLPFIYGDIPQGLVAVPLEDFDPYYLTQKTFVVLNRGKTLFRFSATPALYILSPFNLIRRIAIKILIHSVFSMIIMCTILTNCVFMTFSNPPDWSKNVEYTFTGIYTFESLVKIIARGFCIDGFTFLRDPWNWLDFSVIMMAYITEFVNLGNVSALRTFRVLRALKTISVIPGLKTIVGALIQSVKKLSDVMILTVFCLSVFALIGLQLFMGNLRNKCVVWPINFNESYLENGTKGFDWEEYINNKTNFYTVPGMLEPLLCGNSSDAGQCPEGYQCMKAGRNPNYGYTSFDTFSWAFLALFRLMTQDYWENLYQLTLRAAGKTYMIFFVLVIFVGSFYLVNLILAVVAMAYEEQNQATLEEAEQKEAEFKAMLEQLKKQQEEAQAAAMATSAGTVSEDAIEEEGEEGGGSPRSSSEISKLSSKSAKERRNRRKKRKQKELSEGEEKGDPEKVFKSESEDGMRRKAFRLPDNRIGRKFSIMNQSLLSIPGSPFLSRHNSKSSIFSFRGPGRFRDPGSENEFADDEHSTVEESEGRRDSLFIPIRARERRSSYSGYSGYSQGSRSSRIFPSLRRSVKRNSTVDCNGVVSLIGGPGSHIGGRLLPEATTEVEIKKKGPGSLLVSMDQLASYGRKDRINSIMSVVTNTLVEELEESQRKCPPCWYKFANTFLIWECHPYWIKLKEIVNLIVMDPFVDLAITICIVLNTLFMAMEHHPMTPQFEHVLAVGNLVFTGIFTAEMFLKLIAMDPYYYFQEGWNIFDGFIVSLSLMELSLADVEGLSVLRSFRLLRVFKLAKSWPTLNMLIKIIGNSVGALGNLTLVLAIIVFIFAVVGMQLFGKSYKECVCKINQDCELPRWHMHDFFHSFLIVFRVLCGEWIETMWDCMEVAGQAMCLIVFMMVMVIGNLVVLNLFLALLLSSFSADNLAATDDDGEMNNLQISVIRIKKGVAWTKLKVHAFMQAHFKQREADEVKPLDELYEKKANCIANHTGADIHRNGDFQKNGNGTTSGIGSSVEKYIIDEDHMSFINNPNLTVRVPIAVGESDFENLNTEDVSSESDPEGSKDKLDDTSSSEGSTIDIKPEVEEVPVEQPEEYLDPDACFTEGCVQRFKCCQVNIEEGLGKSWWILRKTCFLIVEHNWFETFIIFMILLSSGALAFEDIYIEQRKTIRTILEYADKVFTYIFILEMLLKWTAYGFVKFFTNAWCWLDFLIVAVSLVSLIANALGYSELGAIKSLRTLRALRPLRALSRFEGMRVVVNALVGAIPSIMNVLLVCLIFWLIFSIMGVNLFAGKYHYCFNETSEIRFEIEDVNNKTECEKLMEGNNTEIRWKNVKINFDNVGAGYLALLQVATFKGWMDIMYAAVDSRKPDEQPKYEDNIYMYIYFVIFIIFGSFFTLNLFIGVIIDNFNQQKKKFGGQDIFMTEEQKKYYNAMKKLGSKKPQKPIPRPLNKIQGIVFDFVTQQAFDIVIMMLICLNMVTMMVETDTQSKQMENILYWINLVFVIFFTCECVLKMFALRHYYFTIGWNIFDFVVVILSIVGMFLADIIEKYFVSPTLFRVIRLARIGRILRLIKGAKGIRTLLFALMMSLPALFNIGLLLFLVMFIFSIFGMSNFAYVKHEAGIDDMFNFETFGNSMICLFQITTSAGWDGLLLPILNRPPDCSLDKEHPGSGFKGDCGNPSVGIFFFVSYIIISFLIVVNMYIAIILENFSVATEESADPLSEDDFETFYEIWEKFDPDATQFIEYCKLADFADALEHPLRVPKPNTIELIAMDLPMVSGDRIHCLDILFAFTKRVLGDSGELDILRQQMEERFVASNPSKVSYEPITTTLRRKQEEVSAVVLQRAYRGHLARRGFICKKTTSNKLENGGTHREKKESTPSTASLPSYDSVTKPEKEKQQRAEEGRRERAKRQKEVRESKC",
  "sequence (Q07699 19-218 partner)": "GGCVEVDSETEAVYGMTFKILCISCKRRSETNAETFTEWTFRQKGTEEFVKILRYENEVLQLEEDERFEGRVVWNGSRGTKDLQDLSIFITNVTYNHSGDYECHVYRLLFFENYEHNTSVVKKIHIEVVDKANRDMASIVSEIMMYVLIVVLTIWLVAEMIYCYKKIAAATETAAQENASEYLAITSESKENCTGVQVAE",
  "assay": "Sodium influx assay (ANG2 dye), NaV1.6",
  "type": "cell-based",
  "conditions": "Trex HEK293 cells, human α-subunit + β1-subunit; inactivated state; read-out: Flux NaV1.6 IC50",
  "data": [
    {"smiles": "Cc1cc(S(=O)(=O)Nc2cscn2)c(F)cc1N(C)[C@H]1CCN(Cc2ccccc2)C1", "note": "[Compound 1, (S)-4-((1-benzylpyrrolidin-3-yl)(methyl)amino)-2-fluoro-5-methyl-N-(thiazol-4-yl)benzenesulfonamide]", "values": [
      {"measurement": "IC50", "value": 272, "unit": "nM"}
    ]}
  ]
}
